Experimental data from patent US11180462B2, “Microbiocidal oxadiazole derivatives” (SYNGENTA PARTICIPATIONS AG, priority 2015, dated 2021).

Columns and labels:
[1] = test system: Phakopsora Pachyrhizi; assay: Fungicidal activity against Phakopsora pachyrhizi / soybean / leaf disc preventative (Asian soybean rust); assay type: in vivo; conditions: foliar, 200 ppm in the applied formulation, soybean leaf disks, compared to untreated control leaf disks, read-out: disease control
Procedure, shortened: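 Preventative soybean leaf-disc test: discs on water agar sprayed with diluted formulated compound, inoculated one day later with spores on the lower surface. Held 24–36 h dark at 20°C, 75% rh, then 12 h light/day; percent disease control versus untreated discs scored 12–14 days after application.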

[2] = test system: Puccinia recondita f. Sp. Tritici; assay: Fungicidal activity against Puccinia recondita f. sp. tritici / wheat / leaf disc preventative (brown rust); assay type: in vivo; conditions: foliar, 200 ppm in the applied formulation, wheat leaf segments, preventative, compared to untreated control leaf disks, read-out: disease control
Procedure, shortened: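 Compound application precedes infection: segments of wheat cv. Kanzler, sprayed at 200 ppm, are inoculated with a spore suspension after 1 day. Incubation is at 19° C. with 75% relative humidity and 12 h light/12 h darkness, and control versus untreated leaves is rated 7 to 9 days post-application.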

[3] = test system: Glomerella lagenarium (Colletotrichum lagenarium); assay: Fungicidal activity against Glomerella lagenarium (Colletotrichum lagenarium) liquid culture / cucumber / preventative (anthracnose); assay type: cell-based; conditions: Colletotrichum orbiculare; 20 ppm in the applied formulation; liquid culture (PDB), growth inhibition measured photometrically after 3 to 4 days; compared to untreated control; read-out: disease control
Procedure, shortened: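 Photometric read-out of fungal growth after 2–7 days, expressed as percent antifungal activity versus untreated check. Cryo-stored conidia in PDB; compound at 20 ppm; dark, 24 °C, 96% RH.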

[4] = test system: Puccinia recondita f. Sp. Tritici; assay: Fungicidal activity against Puccinia recondita f. sp. tritici / wheat / leaf disc curative (brown rust); assay type: in vivo; conditions: foliar, 24 h, 200 ppm in the applied formulation, wheat leaf segments, curative (applied 1 day after inoculation), compared to untreated control leaf disks, read-out: disease control
Procedure, shortened: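 Curative test on wheat leaf segments (cv. Kanzler) on agar, inoculated with spore suspension and held dark at 19° C, 75% RH; formulated compound in water applied 1 day after inoculation. Incubated at 19° C, 75% RH, 12 h light/12 h dark; percent disease control versus untreated scored 6 to 8 days after application.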

CN(Cc1ccc(-c2noc(C(F)(F)F)n2)cc1)C(=O)COC(F)F [Compound 1.595, 2-(difluoromethoxy)-N-methyl-N-[[4-[5-(trifluoromethyl)-1,2,4-oxadiazol-3-yl]phenyl]methyl]-acetamide]
≥ 80%: pest or weed control at 200 ppm [1] | pest or weed control at 200 ppm [2] | inhibition of growth at 20 ppm [3] | pest or weed control at 200 ppm [4]

CCCON(Cc1ccc(-c2noc(C(F)(F)F)n2)cc1)C(=O)C1CC1F (stereo not shown) [Compound 1.315, 2-fluoro-N-propoxy-N-[[4-[5-(trifluoromethyl)-1,2,4-oxadiazol-3-yl]phenyl]methyl]-cyclopropane-carboxamide]
≥ 80%: pest or weed control at 200 ppm [1] | pest or weed control at 200 ppm [2] | inhibition of growth at 20 ppm [3] | pest or weed control at 200 ppm [4]

CN(Cc1ccc(-c2noc(C(F)(F)F)n2)cc1)C(=O)C1(C)COC1 [Compound 1.527, N,3-dimethyl-N-[[4-[5-(trifluoromethyl)-1,2,4-oxadiazol-3-yl]phenyl]methyl]-oxetane-3-carboxamide]
≥ 80%: pest or weed control at 200 ppm [1] | pest or weed control at 200 ppm [2] | inhibition of growth at 20 ppm [3] | pest or weed control at 200 ppm [4]

CON(Cc1ccc(-c2noc(C(F)(F)F)n2)cc1)C(=O)C1(C)CC1 [Compound 1.43, N-methoxy-1-methyl-N-[[4-[5-(trifluoromethyl)-1,2,4-oxadiazol-3-yl]phenyl]methyl]-cyclopropane-carboxamide]
≥ 80%: pest or weed control at 200 ppm [1] | pest or weed control at 200 ppm [2] | inhibition of growth at 20 ppm [3] | pest or weed control at 200 ppm [4]

CCCN(Cc1ccc(-c2noc(C(F)(F)F)n2)cc1)C(=O)CCOC [Compound 1.655, 3-methoxy-N-propyl-N-[[4-[5-(trifluoromethyl)-1,2,4-oxadiazol-3-yl]phenyl]methyl]-propanamide]
≥ 80%: pest or weed control at 200 ppm [1] | pest or weed control at 200 ppm [2] | inhibition of growth at 20 ppm [3] | pest or weed control at 200 ppm [4]

CCN(Cc1ccc(-c2noc(C(F)(F)F)n2)cc1)C(=O)NC [Compound 3.52, 1-ethyl-3-methyl-1-[[4-[5-(trifluoromethyl)-1,2,4-oxadiazol-3-yl]phenyl]methyl]urea]
≥ 80%: pest or weed control at 200 ppm [1] | pest or weed control at 200 ppm [2] | inhibition of growth at 20 ppm [3] | pest or weed control at 200 ppm [4]

COCCNC(=O)N(Cc1ccc(-c2noc(C(F)(F)F)n2)cc1)OC [Compound 3.2, 1-methoxy-3-(2-methoxyethyl)-1-[[4-[5-(trifluoromethyl)-1,2,4-oxadiazol-3-yl]phenyl]methyl]-urea]
≥ 80%: pest or weed control at 200 ppm [1] | pest or weed control at 200 ppm [2] | inhibition of growth at 20 ppm [3] | pest or weed control at 200 ppm [4]

C#CCN(Cc1ccc(-c2noc(C(F)(F)F)n2)cc1)C(=O)CC#N [Compound 1.199, 2-cyano-N-prop-2-ynyl-N-[[4-[5-(trifluoromethyl)-1,2,4-oxadiazol-3-yl]phenyl]methyl]-acetamide]
≥ 80%: pest or weed control at 200 ppm [1] | pest or weed control at 200 ppm [2] | inhibition of growth at 20 ppm [3] | pest or weed control at 200 ppm [4]

O=C(C1CC1(F)F)N(Cc1ccc(-c2noc(C(F)(F)F)n2)cc1)CC(F)(F)F (stereo not shown) [Compound 1.690, 2,2-difluoro-N-(2,2,2-trifluoroethyl)-N-[[4-[5-(trifluoromethyl)-1,2,4-oxadiazol-3-yl]phenyl]methyl]-cyclopropane-carboxamide]
≥ 80%: pest or weed control at 200 ppm [1] | pest or weed control at 200 ppm [2] | inhibition of growth at 20 ppm [3] | pest or weed control at 200 ppm [4]

COCCN(Cc1ccc(-c2noc(C(F)(F)F)n2)cc1)C(=O)C1(C#N)CC1 [Compound 1.356, 1-cyano-N-(2-methoxyethyl)-N-[[4-[5-(trifluoromethyl)-1,2,4-oxadiazol-3-yl]phenyl]methyl]-cyclopropane-carboxamide]
≥ 80%: pest or weed control at 200 ppm [1] | pest or weed control at 200 ppm [2] | inhibition of growth at 20 ppm [3] | pest or weed control at 200 ppm [4]

CCC(C)N(Cc1ccc(-c2noc(C(F)(F)F)n2)cc1)C(=O)COC (stereo not shown) [Compound 1.372, 2-methoxy-N-sec-bulyl-N-[[4-[5-(trifluoromethyl)-1,2,4-oxadiazol-3-yl]phenyl]methyl]-acetamide]
≥ 80%: pest or weed control at 200 ppm [1] | pest or weed control at 200 ppm [2] | inhibition of growth at 20 ppm [3] | pest or weed control at 200 ppm [4]

C=CCN(Cc1ccc(-c2noc(C(F)(F)F)n2)cc1)C(=O)C1CC1(F)F (stereo not shown) [Compound 1.484, N-allyl-2,2-difluoro-N-[[4-[5-(trifluoromethyl)-1,2,4-oxadiazol-3-yl]phenyl]methyl]-cyclopropane-carboxamide]
≥ 80%: pest or weed control at 200 ppm [1] | pest or weed control at 200 ppm [2] | inhibition of growth at 20 ppm [3] | pest or weed control at 200 ppm [4]

CON(Cc1ccc(-c2noc(C(F)(F)F)n2)c(F)c1)C(=O)C1CCCO1 (stereo not shown) [Compound 1.578, N-[[3-fluoro-4-[5-(trifluoromethyl)-1,2,4-oxadiazol-3-yl]phenyl]methyl]-N-methoxy-tetrahydrofuran-2-carboxamide]
≥ 80%: pest or weed control at 200 ppm [1] | pest or weed control at 200 ppm [2] | inhibition of growth at 20 ppm [3] | pest or weed control at 200 ppm [4]

CCN(Cc1ccc(-c2noc(C(F)(F)F)n2)cc1)C(=O)C1(C)COC1 [Compound 1.508, N-ethyl-3-methyl-N-[[4-[5-(trifluoromethyl)-1,2,4-oxadiazol-3-yl]phenyl]methyl]-oxetane-3-carboxamide]
≥ 80%: pest or weed control at 200 ppm [1] | pest or weed control at 200 ppm [2] | inhibition of growth at 20 ppm [3] | pest or weed control at 200 ppm [4]

CC(C)C(=O)N(Cc1ccc(-c2noc(C(F)(F)F)n2)cc1)C(C)C [Compound 1.670, N-isopropyl-2-methyl-N-[[4-[5-(trifluoromethyl)-1,2,4-oxadiazol-3-yl]phenyl]methyl]-propanamide]
≥ 80%: pest or weed control at 200 ppm [1] | pest or weed control at 200 ppm [2] | inhibition of growth at 20 ppm [3] | pest or weed control at 200 ppm [4]

COC(C)(C)C(=O)N(C)Cc1ccc(-c2noc(C(F)(F)F)n2)cc1 [Compound 1.782, 2-methoxy-N,2-dimethyl-N-[[4-[5-(trifluoromethyl)-1,2,4-oxadiazol-3-yl]phenyl]methyl]-propanamide]
≥ 80%: pest or weed control at 200 ppm [1] | pest or weed control at 200 ppm [2] | inhibition of growth at 20 ppm [3] | pest or weed control at 200 ppm [4]
